This is an account of results in patent US12390447B2, “Sirtuin 6 protein deacylase (SIRT6) activators” (Wisconsin Alumni Research Foundation, priority 2019, dated 2025).

Experiment [1] has as its target T1, SIRT6 (Homo sapiens, UniProt Q8N6T7). In words: Small molecule SIRT6 activator screen (H3K9ac peptide deacetylation, HPLC). The format is biochemical. Particulars: compound 100 μM; SIRT6 1 μM; H3K9ac peptide 20 μM; 0.5 mM NAD+. The method, then: Mastermix containing SIRT6, buffer, and H3K9ac peptide were distributed to wells using Microflex peristaltic dispenser (Beckman). Plates were spun and preheated to 37° C. before addition of NAD^+ using peristaltic dispenser. After 60 minutes reactions were quenched with 2% TFA final using peristaltic dispenser then sealed and spun again before in-house HPLC separation and quantification of substrate and product peptides. Reaction conditions were 1 μM SIRT6, 0.5 mM NAD^+, […] (4-16), 20 mM potassium phosphate pH 7.5, 10% DMSO, and either 10 or 100 μM compound determined by 10-fold dilution of stock library concentration.
All sirtuin deacylation assays were carried out at 37° C. in 20 mM potassium phosphate pH 7.5 with 0.5 mM NAD^+, 10% DMSO, and 20 μM H3K9ac or H3K9myr peptides, unless otherwise noted in legend, and quenched by the addition of 2% TFA final. Steady-state reactions were constrained to less than 20% substrate turnover to prevent product inhibition. A variety of times were required to monitor SIRT6 deacetylation (2-60 minutes) under this restraint given the ability to strongly activate catalysis. In these cases, specific activities were determined and either reported as is or as fold-activation of specific activity. […] Deacetylation reactions were analyzed using a gradient of 33-100% B (30% acetonitrile with 0.05% TFA) in 8 min at 1.6 mL min^−1. Demyristoylation reactions were analyzed using a gradient of 3 to 100% B (acetonitrile with 0.05% TFA) in 10 min at 1.6 mL min^−1. The product and substrate peaks were quantified and ratio of these allowed for quantification of product formation.

The target in experiment [2] is T1, SIRT6. The experiment can be described thus: SIRT6 deacetylation of H3K9ac peptide, fold-activation versus activator concentration. Particulars: for EC50: H3K9ac peptide 20 μM. The format is biochemical. As to the method:
(1A) Compound libraries BML-2803, BML-2800, and an additional set of 178 molecules were screened at 100 μM for their ability to stimulate SIRT6 (1 μM) deacetylation of H3K9ac peptide (20 μM) in the presence of 0.5 mM NAD^+. SIRT6 activity was measured by HPLC quantification of H3K9ac and deacetylated product (inset) and fold activations relative to DMSO control were determined and compiled. (1B) Fold-activation of SIRT6 (1 μM) determined in the presence of either 0-400 μM CL4, 0-150 μM TTNPB, 0-100 μM Lysophosphatidic acid (LPA), or 0-200 μM linoleoylglycine (LGly). Maximum fold-activation and EC50 determined by sigmoidal curve fit. (1C) Steady-state kinetic analysis of SIRT6 (1 μM) deacetylation was conducted with 0-250 μM H3K9ac peptide in the presence of 100 μM CL4, 50 μM TTNPB, 50 μM LPA, or 50 μM LGly. Constants Km, H3K9ac and kcat were determined by fitting data to Michaelis-Menten equation. (1D) Fold-activations of SIRT1 (0.1 μM), SIRT2 (0.2 μM), SIRT3 (1 μM), SIRT5 (2 μM), and SIRT6 (1 μM) determined in the presence of CL4 (100 μM), TTNPB (50 μM), and LPA (50 μM) relative to DMSO control against 20 μM H3K9ac peptide and 0.5 mM NAD^+. Mean values reported with error bars representing standard deviation of at least three replicates.
All sirtuin deacylation assays were carried out at 37° C. in 20 mM potassium phosphate pH 7.5 with 0.5 mM NAD^+, 10% DMSO, and 20 μM H3K9ac or H3K9myr peptides, unless otherwise noted in legend, and quenched by the addition of 2% TFA final. Steady-state reactions were constrained to less than 20% substrate turnover to prevent product inhibition. A variety of times were required to monitor SIRT6 deacetylation (2-60 minutes) under this restraint given the ability to strongly activate catalysis. In these cases, specific activities were determined and either reported as is or as fold-activation of specific activity. Deacylation reactions were analyzed by reversed phase high-performance liquid chromatography on a Kinetex C18 column (100 Å, 100×4.6 mm, 2.6 μm, Phenomenex) by monitoring the formation of the deacylated product at 214 nm. Deacetylation reactions were analyzed using a gradient of 33-100% B (30% acetonitrile with 0.05% TFA) in 8 min at 1.6 mL min^−1. Demyristoylation reactions were analyzed using a gradient of 3 to 100% B (acetonitrile with 0.05% TFA) in 10 min at 1.6 mL min^−1. The product and substrate peaks were quantified and ratio of these allowed for quantification of product formation. […]

[3] abbreviates: SIRT6 1 μM, 0.5 mM NAD+, sigmoidal curve fit.

T1 sequence (Q8N6T7 whole entry): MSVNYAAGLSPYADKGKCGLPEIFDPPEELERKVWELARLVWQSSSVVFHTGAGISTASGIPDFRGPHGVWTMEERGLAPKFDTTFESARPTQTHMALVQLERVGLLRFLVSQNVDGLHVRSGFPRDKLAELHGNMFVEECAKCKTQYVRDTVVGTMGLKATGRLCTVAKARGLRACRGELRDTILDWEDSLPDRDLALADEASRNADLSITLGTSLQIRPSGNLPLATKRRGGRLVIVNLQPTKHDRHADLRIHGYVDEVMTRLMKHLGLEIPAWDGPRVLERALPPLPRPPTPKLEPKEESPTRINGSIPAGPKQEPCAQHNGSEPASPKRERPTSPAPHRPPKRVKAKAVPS

As for `O=C(O)c1ccc2c(c1)C(=O)N(c1ccc(NC(=O)c3ccc(Cl)cc3Cl)c(Cl)c1)C2=O` [CL-4, 2-(3-chloro-4-(2,4-dichlorobenzamido)phenyl)-1,3-dioxoisoindoline-5-carboxylic acid], the “F.A. (fold-activation of SIRT6 relative to DMSO control)” value at SIRT6 [1] worked out at 18 fold. For the same compound, on SIRT6 [2] (SIRT6 1 μM, H3K9ac 20 μM, 0.5 mM NAD+), the “concentration required to stimulate 4-fold activation of SIRT6” value was 35 µM. Moreover, at SIRT6 [2] (setting [3]), the EC50 (in general, the midpoint of the concentration-response curve) amounted to 97 ± 2 µM.

Take `O=C(O)c1ccc2c(c1)C(=O)N(c1ccc(N(C(=O)c3c(Cl)cc(Cl)cc3Cl)C(=O)c3c(Cl)cc(Cl)cc3Cl)c(Cl)c1)C2=O` [CL-5D, 2-(3-chloro-4-(2,4,6-trichloro-N-(2,4,6-trichlorobenzoyl)benzamido)phenyl)-1,3-dioxoisoindoline-5-carboxylic acid]: the “SIRT6 deacetylase activity at high activator concentration” value on SIRT6 [2] (400 μM compound) is reported as “inhibited”. For the same compound, at SIRT6 [2] (by concentration required for 4-fold activation of SIRT6 deacetylase activity), the “increased potency over CL-4” value came out at 7 fold.

As for `CCCCC/C=C\C/C=C\CCCCCCCC(=O)NCC(=O)O` [N-Linoleoylglycine, linoleoyl-glycine, reference compound], the “F.A. (fold-activation of SIRT6 relative to DMSO control)” value at SIRT6 [1] turned out to be 29 fold. This compound also had an EC50 on SIRT6 [2] (setting [3]) of 88 ± 4 µM. The “FAmax (maximum fold-activation)” value on SIRT6 [2] (SIRT6 1 μM, sigmoidal curve fit) was found to be 17 ± 0.8 fold.
